Measurements from ChEMBL document CHEMBL4002605, “Synthesis, identification and in vitro biological evaluation of some novel quinoline incorporated 1,3-thiazinan-4-one derivatives” (Bioorg Med Chem Lett, 2017).
In brackets after ≈: the same amount, converted by molar mass.

Tests used:
Vibrio cholerae = assay: Antibacterial activity against Vibrio cholerae MTCC 3906 by broth microdilution assay method; assay type: functional
Streptococcus pneumoniae = assay: Antibacterial activity against Streptococcus pneumoniae MTCC 1936 by broth microdilution assay method; assay type: functional
[1] = system: Mycobacterium tuberculosis; assay: Antitubercular activity against Mycobacterium tuberculosis H37Rv at 6 ug/mL; assay type: functional
Clostridium tetani = assay: Antibacterial activity against Clostridium tetani MTCC 449 by broth microdilution assay method; assay type: functional
Bacillus subtilis = assay: Antibacterial activity against Bacillus subtilis MTCC 441 by broth microdilution assay method; assay type: functional
Salmonella typhi = assay: Antibacterial activity against Salmonella typhi MTCC 98 by broth microdilution assay method; assay type: functional, Salmonella enterica subsp. enterica serovar Typhi; conditions: Salmonella enterica
Escherichia coli = assay: Antibacterial activity against Escherichia coli MTCC 443 by broth microdilution assay method; assay type: functional
Plasmodium falciparum = assay: Antimalarial activity against Plasmodium falciparum; assay type: functional

| Compound | MIC (Vibrio cholerae) [µg/mL] | MIC (Streptococcus pneumoniae) [µg/mL] | inhibition at 6 µg/mL [1] [%] | MIC (Clostridium tetani) [µg/mL] | MIC (Bacillus subtilis) [µg/mL] | MIC (Salmonella typhi) [µg/mL] | MIC (Escherichia coli) [µg/mL] | IC50 (Plasmodium falciparum) [µg/mL] |
| --- | --- | --- | --- | --- | --- | --- | --- | --- |
| O=C1CCSC(c2ccc(O)cc2)N1CCCNc1ccnc2cc(Cl)ccc12 (centres undefined) | 250 (≈ 584 µM) | 125 (≈ 292 µM) | 42 | 250 (≈ 584 µM) | 250 (≈ 584 µM) | 62.5 (≈ 146 µM) | 250 (≈ 584 µM) | 1.14 (≈ 2.66 µM) |
| O=C1CCSC(c2cccc(F)c2)N1CCCCNc1ccnc2cc(Cl)ccc12 (centres undefined) | 125 (≈ 282 µM) | 250 (≈ 563 µM) | 55 | 125 (≈ 282 µM) | 250 (≈ 563 µM) | 100 (≈ 225 µM) | 125 (≈ 282 µM) | 1.31 (≈ 2.95 µM) |
| O=C(NN1C(=O)CCSC1c1ccccc1)c1cnc2c(C(F)(F)F)cccc2c1O (centres undefined) | 500 (≈ 1120 µM) | 500 (≈ 1120 µM) | 55 | 500 (≈ 1120 µM) | 250 (≈ 559 µM) | 500 (≈ 1120 µM) | 500 (≈ 1120 µM) | 2.1 (≈ 4.69 µM) |
| Cc1ccc(C2SCCC(=O)N2CCNc2ccnc3cc(Cl)ccc23)cc1 (centres undefined) | 250 (≈ 607 µM) | 500 (≈ 1210 µM) | 57 | 250 (≈ 607 µM) | 250 (≈ 607 µM) | 500 (≈ 1210 µM) | 250 (≈ 607 µM) | 1.97 (≈ 4.78 µM) |
| O=C1CCSC(c2ccc(F)cc2)N1CCNc1ccnc2cc(Cl)ccc12 (centres undefined) | 125 (≈ 301 µM) | 62.5 (≈ 150 µM) | 80 | 15.6 (≈ 37.5 µM) | 62.5 (≈ 150 µM) | 62.5 (≈ 150 µM) | 62.5 (≈ 150 µM) | 0.081 (≈ 0.195 µM) |
| O=C1CCSC(c2ccccc2)N1CCCNc1ccnc2cc(Cl)ccc12 (centres undefined) | 500 (≈ 1210 µM) | 500 (≈ 1210 µM) | 47 | 500 (≈ 1210 µM) | 500 (≈ 1210 µM) | 500 (≈ 1210 µM) | 500 (≈ 1210 µM) | 3.5 (≈ 8.5 µM) |
| Cc1ccc(C2SCCC(=O)N2CCCCNc2ccnc3cc(Cl)ccc23)cc1 (centres undefined) | 250 (≈ 568 µM) | 500 (≈ 1140 µM) | 40 | 250 (≈ 568 µM) | 250 (≈ 568 µM) | 500 (≈ 1140 µM) | 500 (≈ 1140 µM) | 2.33 (≈ 5.3 µM) |
| O=C1CCSC(c2ccc(O)cc2)N1CCCCNc1ccnc2cc(Cl)ccc12 (centres undefined) | 250 (≈ 566 µM) | 250 (≈ 566 µM) | 38 | 500 (≈ 1130 µM) | 250 (≈ 566 µM) | 250 (≈ 566 µM) | 125 (≈ 283 µM) | 2.64 (≈ 5.97 µM) |
